Data from US20130029967A1, “Fused Imidazo [3,2 - D] Pyrazines as P13 Kinase Inhibitors” (Centro Nacional de Investigaciones Oncologicas (CNIO), priority 2009, published 2013).
Like-named read-outs stand apart in the source and are kept apart here.

Tests used:
[1] = test system: phospho-Ser-473-Akt; assay: AKT phosphorylation inhibition, Western blot analysis; format: cell-based; settings: cellular p-AKT
Experimental: (§1) Cell culture: The cell lines were obtained from the American Type Culture Collection (ATCC). U2OS (human osteosarcoma) was cultured in Dulbecco's modified Eagle's medium (DMEM). PC3 (human prostate carcinoma), MCF7 (human breast cardinoma), HCT116 (human colon carcinoma), […], U251 (human glyoblastoma) were grown in RPMI. All media were supplemented with 10% fetal bovine serum (FBS) (Sigma) and antibiotics-antimycotics. Cell were maintained in a humidified incubator at 37° C. with 5% CO2 and passaged when confluent using trypsin/EDTA.
AKT phosphorylation Inhibition Western Blot Analysis: Subconfluent cells were incubated under different conditions and washed twice with TBS prior to lysis. Lysis buffer was added containing 50 mM Tris HCl, 150 mM NaCl, 1% NP-40, 2 mM Na3VO4, 100 mM NaF, 20 mM Na4P2O7 and protease inhibitor cocktail (Roche Molecular Biochemicals). The proteins were resolved on 10% SDS-PAGE and transferred to nitrocellulose membrane (Schleicher & Schuell, Dassel, Germany). The membranes were incubated overnight at 4° C. with antibodies specific for Akt, phospho-Ser-473-Akt (Cell Signaling Technology) and α-tubulin (Sigma), they were washed and then incubated with IRDye800 conjugated anti-mouse and Alexa Fluor 680 goat anti-rabbit IgG secondary antibodies. The bands were visualized using an Odyssey infrared imaging system (Li-Cor Biosciences).

[2] = biological target: T1, PI3K (p110α/p85α) (Homo sapiens, UniProt P42336); assay: PI3K activity assay (ADP Hunter Plus); format: biochemical; settings: quantitative results, read-out: PI3K α IC50
T1 construct: purchased Carna Biosciences 07CBS-0402A
T1 sequence (P42336 whole entry): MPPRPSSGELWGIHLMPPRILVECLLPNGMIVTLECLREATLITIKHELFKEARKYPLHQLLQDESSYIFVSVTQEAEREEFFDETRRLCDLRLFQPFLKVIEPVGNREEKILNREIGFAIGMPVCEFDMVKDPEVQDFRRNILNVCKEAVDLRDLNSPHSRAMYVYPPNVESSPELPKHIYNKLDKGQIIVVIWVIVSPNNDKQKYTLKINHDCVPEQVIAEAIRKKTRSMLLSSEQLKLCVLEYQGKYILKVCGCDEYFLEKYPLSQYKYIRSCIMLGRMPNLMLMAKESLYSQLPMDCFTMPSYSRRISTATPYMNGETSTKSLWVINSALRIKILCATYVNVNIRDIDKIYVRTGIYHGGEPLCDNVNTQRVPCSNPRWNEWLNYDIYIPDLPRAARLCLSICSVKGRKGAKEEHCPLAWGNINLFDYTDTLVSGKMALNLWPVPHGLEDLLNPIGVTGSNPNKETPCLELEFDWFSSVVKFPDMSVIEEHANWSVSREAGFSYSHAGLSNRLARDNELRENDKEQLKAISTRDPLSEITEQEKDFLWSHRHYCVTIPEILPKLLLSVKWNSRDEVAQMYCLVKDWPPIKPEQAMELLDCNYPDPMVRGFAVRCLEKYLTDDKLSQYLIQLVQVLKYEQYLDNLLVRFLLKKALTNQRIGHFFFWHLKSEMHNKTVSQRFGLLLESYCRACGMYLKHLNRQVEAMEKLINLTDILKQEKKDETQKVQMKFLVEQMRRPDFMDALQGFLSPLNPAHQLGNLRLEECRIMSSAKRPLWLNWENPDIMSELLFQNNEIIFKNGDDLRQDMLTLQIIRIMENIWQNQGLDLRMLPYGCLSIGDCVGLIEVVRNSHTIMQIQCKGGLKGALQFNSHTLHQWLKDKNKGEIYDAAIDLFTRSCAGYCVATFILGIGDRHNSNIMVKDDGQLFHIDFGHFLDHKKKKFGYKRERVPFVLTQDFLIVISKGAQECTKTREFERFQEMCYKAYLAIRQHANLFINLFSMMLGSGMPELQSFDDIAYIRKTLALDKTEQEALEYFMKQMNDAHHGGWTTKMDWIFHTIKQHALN
T1 sequence (P27986 whole entry partner): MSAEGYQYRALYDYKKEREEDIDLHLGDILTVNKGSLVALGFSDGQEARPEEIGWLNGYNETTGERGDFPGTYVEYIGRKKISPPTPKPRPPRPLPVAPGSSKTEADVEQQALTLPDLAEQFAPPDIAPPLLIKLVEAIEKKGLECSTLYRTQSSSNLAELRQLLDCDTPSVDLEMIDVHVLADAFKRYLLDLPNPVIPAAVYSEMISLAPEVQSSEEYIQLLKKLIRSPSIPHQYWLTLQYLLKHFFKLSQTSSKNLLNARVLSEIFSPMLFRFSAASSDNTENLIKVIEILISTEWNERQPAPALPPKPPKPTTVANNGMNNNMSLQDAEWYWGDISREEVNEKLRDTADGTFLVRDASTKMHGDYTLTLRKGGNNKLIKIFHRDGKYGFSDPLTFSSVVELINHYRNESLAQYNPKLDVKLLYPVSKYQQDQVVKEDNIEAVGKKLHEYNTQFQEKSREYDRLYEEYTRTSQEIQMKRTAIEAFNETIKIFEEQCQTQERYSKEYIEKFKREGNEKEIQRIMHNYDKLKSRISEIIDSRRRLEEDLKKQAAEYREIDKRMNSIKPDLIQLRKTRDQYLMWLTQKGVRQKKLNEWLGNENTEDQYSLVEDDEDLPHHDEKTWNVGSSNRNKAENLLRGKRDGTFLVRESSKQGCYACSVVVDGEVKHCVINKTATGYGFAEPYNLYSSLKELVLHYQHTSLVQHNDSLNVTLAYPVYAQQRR
Experimental: The kinase activity was measured by using the commercial ADP Hunter™ Plus assay available from DiscoveRx (#33-016), which is a homogeneous assay to measure the accumulation of ADP, a universal product of kinase activity. […] Reaction was carried out for 1 hour at 25° C. Reagent A and B were sequentially added to the wells and plates were incubated for 30 min at 37° C. […] Values were normalized against the control activity included for each enzyme (i.e., 100% PI3 kinase activity, without compound). These values were plot against the inhibitor concentration and were fit to a sigmoid dose-response curve by using the Graphed software.

[3] = test system: phospho-AKT (Ser473) in Osteosarcoma U2OS cells; assay: PI3K cellular activity, ELISA (phospho-AKT Ser473); format: cell-based; settings: Homo sapiens, cellular p-AKT
Experimental: as §1
Activity was measured as endogenous levels of phospho-AKT (Ser473) protein. Osteosarcoma U2OS cells were plated in 96 Poly-D-Lysine coating tissue culture plates (18.000 cells/well). After the treatment with serial dilutions of the compound during 3 h, the cells were fixed directly in the wells with 4% paraformaldehide. After fixing, individual wells went through the same series of steps used for a conventional immunoblot: including blocking with 5% BSA, incubation with 1/1000 of primary antibody-AKT ([…]) in PBS containing 5% BSA at 4° C. overnight (Cell Signalling), washing and incubation with second antibody HRP-anti-mouse IgG for 1 h at RT (Amersham). After the addition of SuperSignal ELISA Femto maximum sensitivity chemiluminescent substrate (Pierce) the results were read in a luminescence plate reader (Victor).

Structure (SMILES): CCOC(=O)N1CCc2nc3c(N4CCOCC4)nc(-c4cnc(N)nc4)c(Cl)n3c2C1 [2-32]
- IC50 [1]: 78 nM
- IC50 ([2]; PI3Kα): 84 nM

Structure (SMILES): COc1ccccc1NC(=O)N1CCc2c(nc3c(N4CCOCC4)nc(-c4cnc(N)nc4)cn23)C1 [6-33]
- IC50 [3]: 188 nM
- IC50 [2]: 25 nM

Structure (SMILES): COCCS(=O)(=O)N1CCc2nc3c(N4CCOCC4)nc(-c4cnc(N)nc4)cn3c2C1 [2-85]
- IC50 [3]: 344 nM
- IC50 ([2]; PI3Kα): 54 nM

Structure (SMILES): Nc1ncc(-c2cn3c4c(nc3c(N3CCOCC3)n2)CCN(C(=O)NC2CCCC2)C4)cn1 [2-66]
- IC50 [3]: 546 nM
- IC50 ([2]; PI3Kα): 57 nM

Structure (SMILES): CCS(=O)(=O)N1CCc2nc3c(N4CCOCC4)nc(-c4cnc(N)nc4)cn3c2C1 [2-73]
- IC50 [3]: 236 nM
- IC50 ([2]; PI3Kα): 29 nM

Structure (SMILES): COc1ccc(CN2CCc3c(nc4c(N5CCOCC5)nc(-c5cnc(N)nc5)cn34)C2=O)cc1 [5-06]
- IC50 [1]: 174 nM
- IC50 [2]: 45 nM

Structure (SMILES): COCCN1CCc2c(nc3c(N4CCOCC4)nc(-c4cnc(N)nc4)c(Cl)n23)C1 [6-09]
- IC50 [1]: 180 nM
- IC50 [2]: 121 nM

Structure (SMILES): Nc1ncc(-c2cn3c4c(nc3c(N3CCOCC3)n2)CCC(=O)N4)cn1 [5-11]
- IC50 [3]: 475 nM
- IC50 [2]: 14 nM

Structure (SMILES): Nc1ncc(-c2cn3c4c(nc3c(N3CCOCC3)n2)CN(C(=O)C2CC2)CC4)cn1 [6-24]
- IC50 [3]: 218 nM
- IC50 [2]: 29 nM

Structure (SMILES): CN1CCc2c(nc3c(N4CCOCC4)nc(-c4cnc(N)nc4)cn23)C1 [6-02]
- IC50 [1]: 318 nM
- IC50 [2]: 88 nM

Structure (SMILES): COc1cccc(NC(=O)N2CCc3nc4c(N5CCOCC5)nc(-c5cnc(N)nc5)cn4c3C2)c1 [2-93]
- IC50 [3]: 415 nM
- IC50 ([2]; PI3Kα): 64 nM

Structure (SMILES): Nc1ncc(-c2cn3c4c(nc3c(N3CCOCC3)n2)CN(C(=O)NCc2ccccc2F)CC4)cn1 [6-44]
- IC50 [3]: 139 nM
- IC50 [2]: 7 nM

Structure (SMILES): CN(C)c1ccc(NC(=O)N2CCc3nc4c(N5CCOCC5)nc(-c5cnc(N)nc5)cn4c3C2)cc1 [2-74]
- IC50 [3]: 888 nM
- IC50 ([2]; PI3Kα): 74 nM

Structure (SMILES): c1cc(-c2cn3c4c(nc3c(N3CCOCC3)n2)CCNC4)c2cn[nH]c2c1 [2-04]
- IC50 [1]: 56 nM
- IC50 ([2]; PI3Kα): 755 nM

Structure (SMILES): Cc1ccc(CNC(=O)N2CCc3nc4c(N5CCOCC5)nc(-c5cnc(N)nc5)cn4c3C2)cc1 [2-94]
- IC50 [3]: 260 nM
- IC50 ([2]; PI3Kα): 37 nM

Structure (SMILES): Cc1ccc(NC(=O)N2CCc3nc4c(N5CCOCC5)nc(-c5cnc(N)nc5)cn4c3C2)cc1 [2-105]
- IC50 [3]: 345 nM
- IC50 ([2]; PI3Kα): 44 nM

Structure (SMILES): COc1ccc(NC(=O)N2CCc3nc4c(N5CCOCC5)nc(-c5cnc(N)nc5)cn4c3C2)cc1 [2-102]
- IC50 [3]: 541 nM
- IC50 ([2]; PI3Kα): 70 nM

Structure (SMILES): COc1ccccc1NC(=O)N1CCc2nc3c(N4CCOCC4)nc(-c4cnc(N)nc4)cn3c2C1 [2-72]
- IC50 [3]: 473 nM
- IC50 ([2]; PI3Kα): 47 nM

Structure (SMILES): Nc1ncc(-c2cn3c4c(nc3c(N3CCOCC3)n2)CCN(Cc2ccccn2)C4)cn1 [2-18]
- IC50 [1]: 245 nM
- IC50 ([2]; PI3Kα): 69 nM

Structure (SMILES): Nc1ncc(-c2cn3c4c(nc3c(N3CCOCC3)n2)CN(C(=O)Nc2ccccc2F)CC4)cn1 [6-36]
- IC50 [3]: 250 nM
- IC50 [2]: 21 nM

Structure (SMILES): CS(=O)(=O)N1CCc2nc3c(N4CCOCC4)nc(-c4cnc(N)nc4)c(Cl)n3c2C1 [2-49]
- IC50 [3]: 95 nM
- IC50 ([2]; PI3Kα): 9 nM

Structure (SMILES): COCCN1CCc2c(nc3c(N4CCOCC4)nc(-c4cnc(N)nc4)cn23)C1 [6-03]
- IC50 [1]: 532 nM
- IC50 [2]: 50 nM

Structure (SMILES): CN(C)c1ccc(NC(=O)N2CCc3c(nc4c(N5CCOCC5)nc(-c5cnc(N)nc5)cn34)C2)cc1 [6-39]
- IC50 [3]: 187 nM
- IC50 [2]: 17 nM

Structure (SMILES): Nc1ncc(-c2cn3c4c(nc3c(N3CCOCC3)n2)CCN(C(=O)NCc2ccccc2F)C4)cn1 [2-90]
- IC50 [3]: 302 nM
- IC50 ([2]; PI3Kα): 46 nM

Structure (SMILES): COc1cccc(CNC(=O)N2CCc3nc4c(N5CCOCC5)nc(-c5cnc(N)nc5)cn4c3C2)c1 [2-97]
- IC50 [3]: 491 nM
- IC50 ([2]; PI3Kα): 38 nM

Structure (SMILES): CC(C)C(=O)N1CCc2c(nc3c(N4CCOCC4)nc(-c4cnc(N)nc4)cn23)C1 [6-26]
- IC50 [3]: 137 nM
- IC50 [2]: 44 nM

Structure (SMILES): Nc1ncc(-c2cn3c4c(nc3c(N3CCOCC3)n2)CCN(C(=O)NCc2cccc(F)c2)C4)cn1 [2-83]
- IC50 [3]: 497 nM
- IC50 ([2]; PI3Kα): 25 nM

Structure (SMILES): CCCNC(=O)N1CCc2nc3c(N4CCOCC4)nc(-c4cnc(N)nc4)cn3c2C1 [2-53]
- IC50 [3]: 564 nM
- IC50 ([2]; PI3Kα): 62 nM

Structure (SMILES): CC(C)CS(=O)(=O)N1CCc2nc3c(N4CCOCC4)nc(-c4cnc(N)nc4)cn3c2C1 [2-109]
- IC50 [3]: 763 nM
- IC50 ([2]; PI3Kα): 95 nM

Structure (SMILES): COc1ccccc1CNC(=O)N1CCc2c(nc3c(N4CCOCC4)nc(-c4cnc(N)nc4)cn23)C1 [6-46]
- IC50 [3]: 112 nM
- IC50 [2]: 7 nM

Structure (SMILES): Nc1ncc(-c2cn3c4c(nc3c(N3CCOCC3)n2)CCN(S(=O)(=O)C2CCCC2)C4)cn1 [2-69]
- IC50 [3]: 450 nM
- IC50 ([2]; PI3Kα): 23 nM

Structure (SMILES): CS(=O)(=O)N1CCc2c(nc3c(N4CCOCC4)nc(-c4cnc(N)nc4)c(Cl)n23)C1 [6-17]
- IC50 [3]: 246 nM
- IC50 [2]: 33 nM
